{"source": "paper PMC4076210", "about": "“Discovery of Novel AKT Inhibitors with Enhanced Anti-Tumor Effects in Combination with the MEK Inhibitor” (PLoS ONE, 2014)", "type_in_all_cases": "biochemical", "key": {"DAPK1(h)": {"molecular_target": "T1, DAPK1(h) (Homo sapiens, UniProt P53355)", "T1 construct": "purchased Millipore KinaseProfiler", "assay": "Kinase panel"}, "MSK1(h)": {"molecular_target": "T2, MSK1(h) (Homo sapiens, UniProt O75582)", "T2 construct": "purchased Millipore KinaseProfiler", "assay": "Kinase panel"}, "EphA8(h)": {"molecular_target": "T3, EphA8(h) (Homo sapiens, UniProt P29322)", "T3 construct": "purchased Millipore KinaseProfiler", "T3 sequence (P29322 28-1005)": "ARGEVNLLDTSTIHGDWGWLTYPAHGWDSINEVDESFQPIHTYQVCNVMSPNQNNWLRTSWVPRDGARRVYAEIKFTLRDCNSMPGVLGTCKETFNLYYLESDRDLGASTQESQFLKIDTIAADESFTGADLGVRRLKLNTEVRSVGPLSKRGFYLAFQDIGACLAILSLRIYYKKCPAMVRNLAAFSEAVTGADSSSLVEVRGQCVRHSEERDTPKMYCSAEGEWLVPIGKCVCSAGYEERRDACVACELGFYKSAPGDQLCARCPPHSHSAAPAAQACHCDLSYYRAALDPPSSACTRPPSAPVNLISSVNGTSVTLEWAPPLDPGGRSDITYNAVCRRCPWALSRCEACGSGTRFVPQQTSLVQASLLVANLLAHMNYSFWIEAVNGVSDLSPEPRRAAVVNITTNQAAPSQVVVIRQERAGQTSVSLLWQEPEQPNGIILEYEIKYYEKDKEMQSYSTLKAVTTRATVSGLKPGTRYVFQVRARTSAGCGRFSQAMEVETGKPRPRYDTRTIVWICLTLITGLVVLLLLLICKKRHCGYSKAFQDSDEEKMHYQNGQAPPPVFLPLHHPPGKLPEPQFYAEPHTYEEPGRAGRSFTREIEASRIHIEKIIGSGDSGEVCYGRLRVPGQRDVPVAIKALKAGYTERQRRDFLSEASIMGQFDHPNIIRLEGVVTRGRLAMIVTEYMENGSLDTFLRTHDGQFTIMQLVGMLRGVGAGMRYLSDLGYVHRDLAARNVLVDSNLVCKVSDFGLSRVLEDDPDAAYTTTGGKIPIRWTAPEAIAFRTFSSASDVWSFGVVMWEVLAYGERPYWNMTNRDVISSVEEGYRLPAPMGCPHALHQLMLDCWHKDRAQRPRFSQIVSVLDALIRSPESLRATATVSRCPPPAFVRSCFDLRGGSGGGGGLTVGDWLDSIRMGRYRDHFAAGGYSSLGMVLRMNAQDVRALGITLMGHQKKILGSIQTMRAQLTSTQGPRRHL", "assay": "Kinase panel"}, "PKCγ": {"molecular_target": "PKCγ (Homo sapiens, UniProt P05129)", "assay": "Kinase IC50 assay"}, "DMPK(h)": {"molecular_target": "T4, DMPK(h) (Homo sapiens, UniProt Q09013)", "T4 construct": "purchased Millipore KinaseProfiler", "T4 sequence (Q09013 1-629)": "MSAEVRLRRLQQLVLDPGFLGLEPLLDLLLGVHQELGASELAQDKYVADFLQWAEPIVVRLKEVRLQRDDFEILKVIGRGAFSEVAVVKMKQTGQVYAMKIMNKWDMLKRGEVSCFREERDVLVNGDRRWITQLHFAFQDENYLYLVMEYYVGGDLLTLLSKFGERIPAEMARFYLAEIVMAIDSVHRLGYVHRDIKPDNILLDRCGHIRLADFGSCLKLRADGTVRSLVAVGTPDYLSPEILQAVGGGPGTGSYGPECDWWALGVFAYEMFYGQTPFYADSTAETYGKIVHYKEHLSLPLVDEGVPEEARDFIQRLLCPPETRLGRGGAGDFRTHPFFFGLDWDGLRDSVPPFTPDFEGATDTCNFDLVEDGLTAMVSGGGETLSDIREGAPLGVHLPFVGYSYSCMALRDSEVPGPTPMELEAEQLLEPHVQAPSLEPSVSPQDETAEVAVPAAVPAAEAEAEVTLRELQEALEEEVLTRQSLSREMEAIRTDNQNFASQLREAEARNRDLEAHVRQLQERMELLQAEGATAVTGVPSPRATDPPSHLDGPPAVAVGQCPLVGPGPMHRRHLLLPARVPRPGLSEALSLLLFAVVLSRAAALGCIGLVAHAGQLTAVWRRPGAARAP", "assay": "Kinase panel"}, "Tie2(Y897S)(h)": {"molecular_target": "T5, Tie2(Y897S)(h) (Homo sapiens, UniProt Q02763, Y897S)", "T5 construct": "purchased Millipore KinaseProfiler", "T5 sequence (Q02763 23-1124 Y897S)": "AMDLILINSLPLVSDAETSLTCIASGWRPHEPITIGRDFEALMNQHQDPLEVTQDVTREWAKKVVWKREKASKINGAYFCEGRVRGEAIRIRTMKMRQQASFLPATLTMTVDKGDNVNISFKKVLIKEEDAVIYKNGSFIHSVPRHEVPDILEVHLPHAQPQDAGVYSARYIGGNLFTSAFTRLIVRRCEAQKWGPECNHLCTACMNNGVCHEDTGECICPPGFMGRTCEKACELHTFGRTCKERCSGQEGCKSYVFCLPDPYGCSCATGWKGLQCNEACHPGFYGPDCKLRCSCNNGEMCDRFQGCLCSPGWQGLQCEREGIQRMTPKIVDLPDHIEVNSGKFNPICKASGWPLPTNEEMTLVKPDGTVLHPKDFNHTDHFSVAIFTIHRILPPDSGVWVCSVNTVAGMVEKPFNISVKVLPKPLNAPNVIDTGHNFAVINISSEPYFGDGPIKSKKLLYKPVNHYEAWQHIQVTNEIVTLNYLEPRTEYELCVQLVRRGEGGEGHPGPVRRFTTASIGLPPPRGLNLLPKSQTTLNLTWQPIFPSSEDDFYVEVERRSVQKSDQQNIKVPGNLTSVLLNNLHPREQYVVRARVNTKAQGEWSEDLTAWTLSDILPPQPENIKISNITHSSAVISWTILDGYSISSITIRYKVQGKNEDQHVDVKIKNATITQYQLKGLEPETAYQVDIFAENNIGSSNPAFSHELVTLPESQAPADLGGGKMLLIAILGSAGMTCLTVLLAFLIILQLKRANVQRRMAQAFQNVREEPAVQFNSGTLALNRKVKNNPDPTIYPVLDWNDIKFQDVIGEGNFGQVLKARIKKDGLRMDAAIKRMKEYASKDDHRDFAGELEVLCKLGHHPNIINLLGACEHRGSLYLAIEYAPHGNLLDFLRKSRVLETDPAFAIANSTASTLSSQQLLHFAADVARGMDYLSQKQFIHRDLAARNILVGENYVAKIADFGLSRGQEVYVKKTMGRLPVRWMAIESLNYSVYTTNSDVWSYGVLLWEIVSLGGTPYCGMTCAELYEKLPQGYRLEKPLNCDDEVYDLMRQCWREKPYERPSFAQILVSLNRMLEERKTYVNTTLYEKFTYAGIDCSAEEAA", "assay": "Kinase panel"}, "MST1(h)": {"molecular_target": "T6, MST1(h) (Homo sapiens, UniProt Q13043)", "T6 construct": "purchased Millipore KinaseProfiler", "T6 sequence (Q13043 1-487)": "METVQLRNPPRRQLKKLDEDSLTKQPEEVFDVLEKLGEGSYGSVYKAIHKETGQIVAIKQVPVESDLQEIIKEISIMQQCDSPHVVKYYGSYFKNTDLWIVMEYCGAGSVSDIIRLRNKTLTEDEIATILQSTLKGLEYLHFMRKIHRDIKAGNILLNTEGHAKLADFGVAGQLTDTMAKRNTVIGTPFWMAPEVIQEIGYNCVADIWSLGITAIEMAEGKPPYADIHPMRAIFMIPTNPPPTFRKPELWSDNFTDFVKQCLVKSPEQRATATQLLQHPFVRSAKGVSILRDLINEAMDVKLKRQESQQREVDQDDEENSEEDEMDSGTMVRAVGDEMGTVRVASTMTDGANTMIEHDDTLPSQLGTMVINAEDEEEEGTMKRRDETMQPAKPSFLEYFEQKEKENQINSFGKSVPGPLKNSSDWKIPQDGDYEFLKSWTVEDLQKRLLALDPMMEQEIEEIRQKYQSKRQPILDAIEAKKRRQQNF", "assay": "Kinase panel"}, "STK33(h)": {"molecular_target": "T7, STK33(h) (Homo sapiens, UniProt Q9BYT3)", "T7 construct": "purchased Millipore KinaseProfiler", "assay": "Kinase panel"}, "FGFR3(h)": {"molecular_target": "T8, FGFR3(h) (Homo sapiens, UniProt P22607)", "T8 construct": "purchased Millipore KinaseProfiler", "T8 sequence (P22607 23-806)": "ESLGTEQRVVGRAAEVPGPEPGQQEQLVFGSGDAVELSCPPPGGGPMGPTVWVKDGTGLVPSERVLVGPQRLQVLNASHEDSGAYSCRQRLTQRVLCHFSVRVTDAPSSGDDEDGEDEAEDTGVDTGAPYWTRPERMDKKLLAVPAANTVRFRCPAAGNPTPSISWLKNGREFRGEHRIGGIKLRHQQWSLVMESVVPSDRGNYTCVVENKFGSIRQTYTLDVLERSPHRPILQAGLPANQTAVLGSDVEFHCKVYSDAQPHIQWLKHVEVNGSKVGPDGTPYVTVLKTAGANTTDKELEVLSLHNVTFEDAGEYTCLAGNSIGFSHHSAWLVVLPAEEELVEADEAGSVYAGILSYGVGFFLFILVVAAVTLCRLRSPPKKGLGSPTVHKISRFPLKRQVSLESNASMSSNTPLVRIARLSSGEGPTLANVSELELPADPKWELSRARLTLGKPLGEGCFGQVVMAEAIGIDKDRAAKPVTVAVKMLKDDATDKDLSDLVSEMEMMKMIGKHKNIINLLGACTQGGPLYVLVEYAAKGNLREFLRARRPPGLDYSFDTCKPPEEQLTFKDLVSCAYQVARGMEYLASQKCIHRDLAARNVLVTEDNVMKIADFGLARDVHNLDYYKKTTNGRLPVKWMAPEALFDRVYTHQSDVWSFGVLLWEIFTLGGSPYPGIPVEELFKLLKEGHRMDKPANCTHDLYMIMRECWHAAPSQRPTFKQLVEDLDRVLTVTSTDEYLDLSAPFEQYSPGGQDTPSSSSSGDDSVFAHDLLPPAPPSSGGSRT", "assay": "Kinase panel"}, "CDK7/cyclinH/MAT1(h)": {"molecular_target": "T9, CDK7/cyclinH/MAT1(h) (Homo sapiens, UniProt P50613)", "T9 construct": "purchased Millipore KinaseProfiler", "assay": "Kinase panel"}, "PRK2(h)": {"molecular_target": "T10, PRK2(h) (Homo sapiens, UniProt Q16513)", "T10 construct": "purchased Millipore KinaseProfiler", "assay": "Kinase panel"}}, "note": "Read-outs that look alike come from different tables or passages of the source.", "data": [{"smiles": "Cn1ncc(Cl)c1-c1cc(C(=O)N[C@H](CN)Cc2cccc(F)c2)sc1Cl", "note": "[GSK2110183]", "values": [{"measurement": "inhibition at 0.5 µM", "setting": "DAPK1(h)", "value": 1, "unit": "%"}, {"measurement": "inhibition at 10 µM", "setting": "DAPK1(h)", "value": 28, "unit": "%"}, {"measurement": "inhibition at 0.5 µM", "setting": "MSK1(h)", "value": 85, "unit": "%"}, {"measurement": "inhibition at 10 µM", "setting": "MSK1(h)", "value": 98, "unit": "%"}, {"measurement": "inhibition at 0.5 µM", "setting": "EphA8(h)", "value": -19, "unit": "%"}, {"measurement": "inhibition at 10 µM", "setting": "EphA8(h)", "value": -7, "unit": "%"}, {"measurement": "IC50", "setting": "PKCγ", "value": "> 1000", "unit": "nM"}, {"measurement": "inhibition at 0.5 µM", "setting": "DMPK(h)", "value": -8, "unit": "%"}, {"measurement": "inhibition at 10 µM", "setting": "DMPK(h)", "value": 1, "unit": "%"}, {"measurement": "inhibition at 0.5 µM", "setting": "Tie2(Y897S)(h)", "value": -5, "unit": "%"}, {"measurement": "inhibition at 10 µM", "setting": "Tie2(Y897S)(h)", "value": -4, "unit": "%"}, {"measurement": "inhibition at 0.5 µM", "setting": "MST1(h)", "value": -2, "unit": "%"}, {"measurement": "inhibition at 10 µM", "setting": "MST1(h)", "value": 19, "unit": "%"}, {"measurement": "inhibition at 0.5 µM", "setting": "STK33(h)", "value": 56, "unit": "%"}, {"measurement": "inhibition at 10 µM", "setting": "STK33(h)", "value": 94, "unit": "%"}, {"measurement": "inhibition at 0.5 µM", "setting": "FGFR3(h)", "value": -6, "unit": "%"}, {"measurement": "inhibition at 10 µM", "setting": "FGFR3(h)", "value": 9, "unit": "%"}, {"measurement": "inhibition at 0.5 µM", "setting": "CDK7/cyclinH/MAT1(h)", "value": 62, "unit": "%"}, {"measurement": "inhibition at 10 µM", "setting": "CDK7/cyclinH/MAT1(h)", "value": 96, "unit": "%"}, {"measurement": "inhibition at 0.5 µM", "setting": "PRK2(h)", "value": 71, "unit": "%"}, {"measurement": "inhibition at 10 µM", "setting": "PRK2(h)", "value": 99, "unit": "%"}]}, {"smiles": "Cn1ncc(Cl)c1-c1cc(C(=O)N[C@H](CN)Cc2ccc(F)c(F)c2)oc1Cl", "note": "[GSK2141795]", "values": [{"measurement": "inhibition at 0.5 µM", "setting": "DAPK1(h); 0.5 µM, read-out: % Inhibition", "value": 1, "unit": "%"}, {"measurement": "inhibition at 10 µM", "setting": "DAPK1(h); 10 µM, read-out: % Inhibition", "value": 41, "unit": "%"}, {"measurement": "inhibition at 0.5 µM", "setting": "MSK1(h); 0.5 µM, read-out: % Inhibition", "value": 90, "unit": "%"}, {"measurement": "inhibition at 10 µM", "setting": "MSK1(h); 10 µM, read-out: % Inhibition", "value": 95, "unit": "%"}, {"measurement": "inhibition at 0.5 µM", "setting": "EphA8(h); 0.5 µM, read-out: % Inhibition", "value": -4, "unit": "%"}, {"measurement": "inhibition at 10 µM", "setting": "EphA8(h); 10 µM, read-out: % Inhibition", "value": 25, "unit": "%"}, {"measurement": "IC50", "setting": "PKCγ", "value": 200, "unit": "nM"}, {"measurement": "inhibition at 0.5 µM", "setting": "DMPK(h); 0.5 µM, read-out: % Inhibition", "value": -12, "unit": "%"}, {"measurement": "inhibition at 10 µM", "setting": "DMPK(h); 10 µM, read-out: % Inhibition", "value": -5, "unit": "%"}, {"measurement": "inhibition at 0.5 µM", "setting": "Tie2(Y897S)(h); 0.5 µM, read-out: % Inhibition", "value": -4, "unit": "%"}, {"measurement": "inhibition at 10 µM", "setting": "Tie2(Y897S)(h); 10 µM, read-out: % Inhibition", "value": 2, "unit": "%"}, {"measurement": "inhibition at 0.5 µM", "setting": "MST1(h); 0.5 µM, read-out: % Inhibition", "value": -10, "unit": "%"}, {"measurement": "inhibition at 10 µM", "setting": "MST1(h); 10 µM, read-out: % Inhibition", "value": 25, "unit": "%"}, {"measurement": "inhibition at 0.5 µM", "setting": "STK33(h); 0.5 µM, read-out: % Inhibition", "value": 82, "unit": "%"}, {"measurement": "inhibition at 10 µM", "setting": "STK33(h); 10 µM, read-out: % Inhibition", "value": 77, "unit": "%"}, {"measurement": "inhibition at 0.5 µM", "setting": "FGFR3(h); 0.5 µM, read-out: % Inhibition", "value": -14, "unit": "%"}, {"measurement": "inhibition at 10 µM", "setting": "FGFR3(h); 10 µM, read-out: % Inhibition", "value": 2, "unit": "%"}, {"measurement": "inhibition at 0.5 µM", "setting": "CDK7/cyclinH/MAT1(h); 0.5 µM, read-out: % Inhibition", "value": 64, "unit": "%"}, {"measurement": "inhibition at 10 µM", "setting": "CDK7/cyclinH/MAT1(h); 10 µM, read-out: % Inhibition", "value": 101, "unit": "%"}, {"measurement": "inhibition at 0.5 µM", "setting": "PRK2(h); 0.5 µM, read-out: % Inhibition", "value": 81, "unit": "%"}, {"measurement": "inhibition at 10 µM", "setting": "PRK2(h); 10 µM, read-out: % Inhibition", "value": 96, "unit": "%"}]}]}
